Assay type in all cases: cell-based
What all share (settings): 72 h; human CD4+ T cells under TH17-polarizing conditions, 3 days; supernatant ELISA

The subject of one assay is IL-17A. Kind of assay: Human TH17 cytokine inhibition measured by ELISA: IL-17A. As for the experimental part: (§1) Human TH17 Cytokine Inhibition as Measured by ELISA
(§2) Peripheral blood mononuclear cells (PBMCs) were sourced from freshly prepared leukocyte enriched plasma (buffy coat) from healthy donors (New York Blood Center). PBMCs were isolated by density gradient centrifugation using Ficoll-Paque™ PLUS (GE Healthcare). Human CD4+ T cells were seeded into 96-well plates (5×10^4 cells/well) and activated with plate-bound anti-human (h)-CD3 antibody and soluble h-aCD28 (both at 1 ug/ml; eBioscience) and differentiated into TH17 cells with 20 ng/mL h-IL-6, 5 ng/mL h-TGF-β1, 10 ng/mL h-IL-23 (eBioscience) and 10 ng/mL IL-1 β (Miltenyi Biotec) in serum-free TexMACS Medium (Miltenyi Biotec) supplemented with 1% Penicillin/Streptomycin (Lonza) for 3 days. CD4+ T cells propagated under TH17-polarizing conditions were cultured in the presence or absence of various concentrations of compounds with a final concentration of 0.1% DMSO. Supernatants were collected and stored at −20° C. until assayed for IL-17A, IL-17F and IL-21 levels by “Ready-Set-Go” ELISA kits (eBioscience) as per manufacturer's instructions. Endpoint absorbance was read at 450 nm using a microplate reader (Perkin Elmer).
A general note: ELISA stands for enzyme-linked immunosorbent assay.

A further assay has as its system IL-17F. Kind of assay: Human TH17 cytokine inhibition measured by ELISA: IL-17F. As to the method:
as §1, §2

For a further assay, the system named is IL-21. Kind of assay: Human TH17 cytokine inhibition measured by ELISA: IL-21. As for the experimental part: as §1, §2
Another assay deals with IL-22. Kind of assay: Human TH17 cytokine inhibition measured by ELISA: IL-22.

The IC50 is the point on the concentration scale where inhibition reaches its midpoint. A high value points to weaker potency in that assay.

On to `C[C@@H]1C[C@H](Cn2ccc3cc(-c4cn[nH]c4)ccc32)CN1S(=O)(=O)c1ccccc1` (racemic) [Example 47, rac.-cis-1-((-5-methyl-1-(phenylsulfonyl)pyrrolidin-3-yl)methyl)-5-(1H-pyrazol-4-yl)-1H-indole], for which the IC50 in the assay on IL-17A, with IL-17F and in the assay with IL-21 was under 10 µM throughout.
With `C[C@H]1C[C@H](Cn2ccc3cc(-c4cn[nH]c4)ccc32)CN1S(=O)(=O)c1ccccc1` (racemic) [Example 48, rac.-trans-1-((-5-methyl-1-(phenylsulfonyl)pyrrolidin-3-yl)methyl)-5-(1H-pyrazol-4-yl)-1H-indole], the IC50 in the assay with IL-17A, with IL-17F and with IL-21 was under 10 µM each time.
`O=S(=O)(c1ccccc1)N1CCC(Cn2ccc3cc(-c4cn[nH]c4)ccc32)CC1` [Example 5, 1-((1-(phenylsulfonyl)piperidin-4-yl)methyl)-5-(1H-pyrazol-4-yl)-1H-indole]: the IC50 in the assay on IL-17A, with IL-17F and in the assay on IL-21 was under 10 µM throughout.
With `O=S(=O)(Cc1ccccc1)N1CCC(Cn2ccc3cc(-c4cn[nH]c4)ccc32)CC1` [Example 6, 1-((1-(benzylsulfonyl)piperidin-4-yl)methyl)-5-(1H-pyrazol-4-yl)-1H-indole], the figures for the IC50 in the assay on IL-17A, with IL-17F and in the assay with IL-21 were under 10 µM, under 10 µM and over 10 µM, respectively.
On to `O=S(=O)(CCc1ccccc1)N1CCC(Cn2ccc3cc(-c4cn[nH]c4)ccc32)CC1` [Example 7, 1-((1-(phenethylsulfonyl)piperidin-4-yl)methyl)-5-(1H-pyrazol-4-yl)-1H-indole], for which the IC50 in the assay with IL-17A, in the assay with IL-17F and in the assay with IL-21 was under 10 µM in each case.
Turning to `O=S(=O)(CC(F)(F)F)N1CCC(Cn2ccc3cc(-c4cn[nH]c4)ccc32)CC1` [Example 8, 5-(1H-pyrazol-4-yl)-1-((1-((2,2,2-trifluoroethyl)sulfonyl)piper-idin-4-yl)methyl)-1H-indole], the IC50 in the assay on IL-17A, in the assay with IL-17F and with IL-21 was over 10 µM throughout.
As for `CC1(C)CC(Cn2ccc3cc(-c4cn[nH]c4)ccc32)CN1S(=O)(=O)c1ccccc1` (stereo not shown) [Example 29, 1-((5,5-dimethyl-1-(phenylsulfonyl)pyrrolidin-3-yl)methyl)-5-(1H-pyrazol-4-yl)-1H-indole], the concentration for half-maximal inhibition (IC50) in the assay on IL-17A, with IL-17F and in the assay with IL-21 was under 10 µM throughout.
As to `O=S(=O)(c1ccc(Cl)cc1)N1CCC(Cn2ccc3cc(-c4cn[nH]c4)ccc32)CC1` [Example 36, 1-((1-(4-chlorophenylsulfonyl)piperidin-4-yl)methyl)-5-(1H-pyrazol-4-yl)-1H-indole], the IC50 in the assay on IL-17A, in the assay on IL-22, in the assay with IL-17F and in the assay with IL-21 was under 10 µM throughout.
In the case of `O=S(=O)(c1cccnc1)N1CCC(Cn2ccc3cc(-c4cn[nH]c4)ccc32)CC1` [Example 38, 5-(1H-pyrazol-4-yl)-1-((1-(pyridin-3-ylsulfonyl)piperidin-4-yl)methyl)-1H-indole], the IC50 with IL-17A, with IL-22, in the assay with IL-17F and in the assay on IL-21 was under 10 µM each time.
As for `O=S(=O)(c1ccccc1F)N1CCC(Cn2ccc3cc(-c4cn[nH]c4)ccc32)CC1` [Example 40, 1-((1-(2-fluorophenylsulfonyl)piperidin-4-yl)methyl)-5-(1H-pyrazol-4-yl)-1H-indole], the IC50 in the assay on IL-17A, in the assay on IL-22, in the assay on IL-17F and in the assay with IL-21 was under 10 µM in each case.
`CS(=O)(=O)N1CCC(Cn2ccc3cc(-c4cn[nH]c4)ccc32)CC1` [Example 50, 1-((1-(methylsulfonyl)piperidin-4-yl)methyl)-5-(1H-pyrazol-4-yl)-1H-indole]: the IC50 with IL-17A, in the assay on IL-22, with IL-17F and with IL-21 was over 10 µM each time.
